Measured values: patent US11718596B2, “Amyloid targeting agents and methods of using the same” (The Regents of the University of California, priority 2014, dated 2023)
Converted amounts (≈) assume the structure as drawn.

What was measured:
[1] = system: amyloid deposits in murine AD neuronal tissue; assay: Tissue staining of amyloid deposits in AD mouse brain sections; conditions: for staining of amyloid deposits in murine AD neuronal tissue: figure legends; for fluorescence labeling of amyloid deposits in hippocampal brain sections: mouse model for Alzheimer's disease, FIG. 13
[2] = system: amyloids derived from amyloid-β, PrP, and α-synuclein; format: binding
Solubility studies = conditions: lower pH and higher buffer concentration
[3] = target: aggregated Aβ(1-42) peptide (Homo sapiens, UniProt P05067); conditions: in vitro; characteristic fluorescence upon binding to Alzheimer's related amyloids
[4] = target: amyloid deposits in the retina (Homo sapiens, UniProt P05067); assay: Ex vivo retina analysis of J20 mice after systemic (tail vein) dosing; conditions: J20 mouse, 30 minutes prior to sacrifice, co-localizes with anti-Aβ antibody
[5] = system: prion amyloid deposits in the retina
[6] = Hydrolytic decomposition in PBS by HPLC; format: physicochemical; conditions: PBS with 5% DMSO, 25° C., read-out: t1/2 for hydrolysis (converted)
Text: In certain in vivo environments (especially at high or low pH or in the presence of esterases), ANCA-11 is expected to decompose very rapidly due to the poor stability of its ester functionality. The amide functionality in Compound 1 alleviates the problem of hydrolytic instability inherent to ANCA-11.

amyloid deposits in the retina, sequence (P05067 672-713 limits assumed): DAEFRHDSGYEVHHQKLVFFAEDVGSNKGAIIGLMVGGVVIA
aggregated Aβ(1-42) peptide, sequence (P05067 672-713): as the sequence (P05067 672-713 limits assumed) above

COCCOCCOCCOCCOCCOCCNC(=O)/C(C#N)=C/c1ccc2cc(N3CCCCC3)ccc2c1 [Compound 3, (E)-2-cyano-N-(2,5,8,11,14,17-hexaoxanonadecan-19-yl)-3-(6-(piperidin-1-yl)naphthalen-2-yl)acrylamide]
staining of amyloid deposits in murine AD neuronal tissue [1]: staining of amyloid deposits

COCCOCCOCCNC(=O)/C(C#N)=C/c1ccc2cc(N3CCCCC3)ccc2c1 [Compound 1, (E)-2-Cyano-N-(2-(2-(2-methoxyethoxy)ethoxy)ethyl)-3-(6-(piperidin-1-yl)naphthalen-2-yl)acrylamide]
discrimination of amyloids of different disease origin based on color of emission [2]: can distinguish between amyloids of different disease origin based on color of emission | fold increase of solubility in acid buffer vs water (Solubility studies): 100 fold | fluorescence labeling of amyloid deposits in hippocampal brain sections [1]: fluorescence labeling of amyloid deposits | solubility (physchem; aqueous buffer, solubility at lower pH and higher acidic buffer strength): > 6000 µg/mL | solubility (physchem; aqueous with cosolvent or surfactant or cyclodextrin, solubility in surfactants): > 5000 µg/mL | solubility (physchem; aqueous with cosolvent or surfactant or cyclodextrin, solubility in the other water miscible solvents listed): 2000 to 3000 µg/mL (≈ 4.43 to 6.64 mM) | solubility (physchem; oil or lipid, solubility in all oils tested): > 5000 µg/mL | solubility (physchem; organic solvent or mixture, Solubility (mg/mL)): 20000 µg/mL (≈ 44.3 mM) | solubility (physchem; organic solvent or mixture, solubility in water miscible solvents: alcohols): > 5000 µg/mL | solubility (physchem; pH 2, aqueous buffer, solubility in acid buffers): ≤ 350 µg/mL | solubility (physchem; pH 2.5, aqueous buffer, Conc (mg/mL)): 1630 µg/mL (≈ 3.61 mM) | solubility (physchem; pH 7.4, aqueous buffer, Conc (mg/mL)): 7.4 µg/mL (≈ 0.0164 mM) | solubility (physchem; water, Conc (mg/mL)): 3.1 µg/mL (≈ 0.00686 mM) | solubility (physchem; water, solubility in water): 3 µg/mL (≈ 0.00664 mM) | ability to bind selectively to amyloids [3]: bind selectively to amyloids | crossing of the blood-retina barrier [4]: can cross the blood-retina barrier | visualization of amyloid deposits in the retina of live mice ([5]; mice inoculated with GPI-anchorless PrP, intraperitoneal injection): allowed for the visualization of amyloid deposits in the retina | accumulation in blood and retinal tissue after IP injection ([5]; wt mouse, fluorescence image immediately after IP injection): immediately accumulates in the blood and in the retinal tissue | half-life [6]: ~6.25 days

N#C/C(=C\c1ccc2cc(N3CCCCC3)ccc2c1)C(=O)NCC(O)CO (stereo not shown) [Compound 5, (E)-2-cyano-N-(2,3-dihydroxypropyl)-3-(6-(piperidin-1-yl)naphthalen-2-yl)acrylamide]
staining of amyloid deposits in murine AD neuronal tissue [1]: staining of amyloid deposits

COCCOCCOCCOC(=O)/C(C#N)=C/c1ccc2cc(N3CCCCC3)ccc2c1 [ANCA-11, (E)-2-(2-(2-methoxyethoxy)ethoxy)ethyl 2-cyano-3-(6-(piperidin-1-yl)naphthalen-2-yl)acrylate, reference compound]
half-life [6]: ~0.458 days

COC1OC(Cn2cc(COCCOCCOCCNC(=O)/C(C#N)=C/c3ccc4cc(N5CCCCC5)ccc4c3)nn2)C(O)C(O)C1O (stereo not shown) [Compound 19, (E)-2-cyano-3-(6-(piperidin-1-yl)naphthalen-2-yl)-N-(2-(2-(2-((1-((3,4,5-trihydroxy-6-methoxytetrahydro-2H-pyran-2-yl)methyl)-1H-1,2,3-triazol-4-yl)methoxy)ethoxy)ethoxy)ethyl)acrylamide]
staining of amyloid deposits in murine AD neuronal tissue [1]: staining of amyloid deposits

COC1OC(Cn2cc(CNC(=O)/C(C#N)=C/c3ccc4cc(N5CCCCC5)ccc4c3)nn2)C(O)C(O)C1O (stereo not shown) [Compound 20, (E)-2-cyano-3-(6-(piperidin-1-yl)naphthalen-2-yl)-N-((1-((3,4,5-trihydroxy-6-methoxytetrahydro-2H-pyran-2-yl)methyl)-1H-1,2,3-triazol-4-yl)methyl)acrylamide]
staining of amyloid deposits in murine AD neuronal tissue [1]: staining of amyloid deposits

COCCOCCOCCNS(=O)(=O)/C(C#N)=C/c1ccc2cc(N3CCCCC3)ccc2c1 [Compound 2, (E)-1-cyano-N-(2-(2-(2-methoxyethoxy)ethoxy)ethyl)-2-(6-(piperidin-1-yl)naphthalen-2-yl)ethenesulfonamide]
fluorescence labeling of amyloid deposits in hippocampal brain sections [1]: fluorescence labeling of amyloid deposits
